Starred links: 1 amine or outer side, 2 acyl side, 3 side chain; linkers in the order of their positions; H or OH if unused. Positions of bridges follow the written chain, without caps; N, C: chain ends. Non-standard residues stand in square brackets, D forms with d. Residues, ends and D or L forms follow the SMILES beside them. *: point of attachment. X1 = CC[C@H](C)[C@@H](N[*:1])[C@@H](O)CC(=O)O[C@H](C(=O)[C@H](C)C(=O)[*:2])C(C)C; NMeY = CN[C@@H](Cc1ccc(O)cc1)C(=O)O; dNMeL = CN[C@H](CC(C)C)C(=O)O; Pyruvoyl = CC(=O)C(=O)*
Columns and labels:
[1] = Tissue distribution of total radioactivity after single IV bolus of [14C]plitidepsin; type: in vivo, Sprague–Dawley rats; settings: rat, 0.2 mg/kg i.v. bolus
Experimental: An in vivo distribution study was carried out in rats. PM140064 (14C1-Plitidepsin) was supplied by PharmaMar at a radiochemical purity of 95% or greater, with no single impurity 3% or greater. The study was conducted at Aptuit Srl ([54]).
24 male and 24 female Sprague–Dawley rats each received a single IV bolus administration of [14C] Plitidepsin at a target dose of 0.2 mg/kg. After administration, three animals per time-point (0.25, 1, 2, 4, 8, 24, 48, and 72 h post-dose) were exsanguinated from the abdominal aorta and blood retained. Actual times of bleeding were recorded. In addition to blood, the following tissues were collected: brain, eyeballs, heart, liver, lung, skeletal muscle (quadriceps), fat, kidneys, stomach, skin, small intestine, spleen, thyroid, lymph nodes, and testes or ovaries. At the end of the collection period animals were euthanized by CO2 asphyxiation and the carcasses were discarded. Additional animals were bled to obtain control blood/plasma and tissues.

[2] = Drug-induced cytotoxicity in Vero E6 cells in the absence of virus; type: cell-based; settings: monkey, Vero E6 cells (ATCC CRL-1586), uninfected, Vero E6 cells without virus
COVID-19 = assay: APLICOV-PC: post hoc analysis of hospital discharge; type: in vivo, human
Experimental: Post hoc analyses were conducted to (1) assess disease severity at baseline (mild, moderate, severe COVID-19 by FDA criteria) ([23]) and (2) assess covariates associated with efficacy end points, including hospital discharge by Day 15 or Day 8.
The Kaplan–Meier method was used for the description of time to event end points and the median and the 95% confidence intervals were provided.

In the case of `CC[C@H](C)[C@H]1NC(=O)[C@@H](NC(=O)[C@@H](CC(C)C)N(C)C(=O)[C@@H]2CCCN2C(=O)C(C)=O)[C@@H](C)OC(=O)[C@H](Cc2ccc(OC)cc2)N(C)C(=O)[C@@H]2CCCN2C(=O)[C@H](CC(C)C)NC(=O)[C@@H](C)C(=O)[C@H](C(C)C)OC(=O)C[C@@H]1O` [Plitidepsin] (Pyruvoyl-P[dNMeL]T[X1]LP[NMeY](Me); ester 3-C), the “lung-blood (LBR) AUC ratio” value [1] is reported as “around 8 fold”, the CC50 at 3 d [2] is reported as 2.9 µM and the “discharge rate at Day 15” value (COVID-19; 1.5 mg/day) is reported as 78.6%. The “patients achieving hospital discharge by Day 8” value (COVID-19; 1.5 mg/day) was 42.9%, the “discharge rate at Day 15” value (COVID-19; 2 mg/day) was 93.3% and the “patients achieving hospital discharge by Day 8” value (COVID-19; 2 mg/day) was 60%. For the same molecule, the “discharge rate at Day 15” value (COVID-19; 2.5 mg/day) was 73.3%, the “patients achieving hospital discharge by Day 8” value (COVID-19; 2.5 mg/day) was 66.7% and the “median time to discharge” value (COVID-19; mild COVID-19 at baseline) was 7 days. The “discharge rate by Day 8” value (COVID-19; mild disease, 4 of 6) was 66.7%, the “discharge rate by Day 15” value (COVID-19; mild disease, 6 of 6) was 100% and the “median time to discharge” value (COVID-19; moderate COVID-19 at baseline) was 7 days. The “patients discharged beyond day 8” value (COVID-19; moderate disease at baseline, 1.5 mg/day, three of eight) was 38%, the “patients discharged beyond day 8” value (COVID-19; moderate disease at baseline, 2.0 mg/day, three of seven) was 43% and the “patients discharged by day 8” value (COVID-19; moderate disease at baseline, 2.5 mg/day) was 8 of 8. The “discharge rate by Day 8” value (COVID-19; moderate disease, 17 of 23) was 73.9%, the “discharge rate by Day 15” value (COVID-19; moderate disease, 22 of 23) was 95.7% and the “discharge rate by day 8” value (COVID-19; overall, 25 of 44) was 56.8%. The “discharge rate by day 15” value (COVID-19; overall, 36 of 44) was 81.8%, the “median time to discharge” value (COVID-19; severe COVID-19 at baseline) was 14 days and the “discharge rate by Day 8” value (COVID-19; severe disease, 4 of 15) was 27%. The “discharge rate by Day 15” value (COVID-19; severe disease, 8 of 15) was 53.3%.

Reference: paper PMC8761492 (Life Science Alliance, 2022)
